Measured values from patent publication US20250115595A1, “INHIBITORS OF HYPOXIA-INDUCIBLE FACTORS” (The Johns Hopkins University, priority 2021, published 2025).

Experiments:
HIF target genes = assay: RT-qPCR of HIF target gene expression in Hep3B cells; format: cell-based, human
Description: Based on hit compound 11-88, a number of analogs were prepared in which either halogen substitutions to the indole groups were altered or the central thiazole was replaced by imidazole, isoxazole, oxadiazole, oxazole, pyrazinone, pyridazine, pyrazine, pyrazole, pyridine, thiadiazole, triazine, or triazole. […] The bis-bromoindole thiazole 32-134D and the bis-indole thiadiazole 33-063 (FIGS. 1B and 1C) were further characterized with respect to endogenous HIF target gene expression in Hep3B cells. […] For comparison, we tested the effect of PT2385, which inhibited EPO, NDRG1, ANGPTL4, and VEGFA expression but had no effect on CA9, which is consistent with its HIF-2-selective mechanism of action (Wallace E M et al., Cancer Res. 2016; 76(18):5491-5500). None of the compounds had any effect on RPL13A expression, which is neither hypoxia-induced nor HIF-regulated (FIG. 3).
Human Hep3B and mouse Hepa1-6 cells were purchased from ATCC and grown in high-glucose (4.5 mg/ml) Dulbecco's modified Eagle's medium supplemented with 10% (vol/vol) fetal bovine serum and […] at 37° C. in a 5% CO2/95% air incubator (20% O2). Human cell line identity was authenticated by analysis of short tandem repeats, and all cell lines were maintained mycoplasma free, using PCR-based assays conducted at the Johns Hopkins University Genetic Resources Core Facility. Cells were subjected to hypoxia in a controlled atmosphere chamber (PLAS Labs) with ambient gas mixture containing 1% O2 and 5% CO2.
RNA was extracted using TRIzol Reagent (ThermoFisher). Quantitative Real-time PCR was conducted using SYBR Green PCR Master Mix (BioRad) and reactions were run using the BioRad thermal cycler (BioRad). The mRNA expression of target genes was normalized to the expression of 18S rRNA and the fold change (FC) was calculated based on the threshold cycle (Ct) as
FC=2^−Δ(ΔCt) where ΔCt=Cttarget gene−Ct18S rRNA and Δ(ΔCt)=ΔCttreatment−ΔCtcontrol.

HIF-1α and HIF-2α = assay: HIF accumulation in hypoxic D120 hiPSC-derived retinal organoids; format: cell-based, human; conditions: 1% O2, 12 hours
Description: To assess the therapeutic potential of 32-134D for diabetic patients, human induced pluripotent stem cell (hiPSC)-derived 3-dimensional (3D) retinal organoids were treated with 32-134D. It has been previously reported that hiPSC-derived 3D retinal organoids cultured under hypoxic conditions (1% O2) behave similar to ischemic human retinal tissue with increased accumulation of both HIF-1α and HIF-2α (J. Zhang et al., J Clin Invest 131 (2021)). By 120 days of differentiation (D120), the inner and outer retinal layers are clearly defined (FIGS. 32A and 32B) and contain the precursors of the major retinal cell types, including outer retina photoreceptors (expressing recoverin), few newly differentiating bipolar cell precursors (lacking expression of recoverin and Pax6), amacrine cells (expressing high levels of Pax6), as well as Müller cells (expressing CRALBP; FIGS. 32C and 32D).
Retinal organoids: An hiPSC line derived from CD34+ cord blood was used in this study (A18945, ThermoFisher Scientific) (P. W. Burridge et al., 2011, PLoS One 6, e18293). Undifferentiated hiPSCs and derived retinal organoids were routinely tested for Mycoplasma contamination by PCR. Cell culture, retinal differentiation, and organoid formation were conducted as previously described (X. Zhong et al., 2014, Nat Commun 5, 4047). Retinal organoids at 120 days of differentiation were used for experiments. […]

[1] = tested on: HIF-regulated angiogenic genes; assay: mRNA expression in hypoxic HUVECs; format: cell-based, human; conditions: 1 or 10 μM, 4 hours
Description: Vascular endothelial cells also secrete angiogenic mediators that contribute to the progression of diabetic eye disease (Y. Qin et al., Sci Adv 8, eabm1896 (2022)). Exposure of human umbilical vein endothelial cells (HUVECs) to hypoxia induced HIF-1α and HIF-2α protein accumulation, which was inhibited by 32-134D (FIG. 30). […] Of note, ANGPT2 and VE-PTP, two emerging targets for the treatment of diabetic eye disease, are both expressed specifically by vascular cells (G. Fachinger, et al., Oncogene 18, 5948-5953 (1999); P. C. Maisonpierre et al., Science 277, 55-60 (1997)).
Reverse transcription and quantitative real-time PCR: Total RNA was isolated from cultured cells or retinas with PureLink™ RNA Mini Kit (Invitrogen #12183025), and cDNA was prepared with MuLV Reverse Transcriptase (Applied Biosystems). Quantitative real-time PCR was performed with Power SYBR Green PCR Master Mix (Applied Biosystems) and MyiQ Real-Time PCR Detection System (Bio-Rad). Normalization was done using cyclophilin A for mouse tissue and human cell lines.

C57BL/6 mice = assay: Retinal safety after intraocular injection (ERG, histology, RGC count); format: in vivo, mouse
Description: To reduce the risk of systemic side effects while optimizing the delivery of drugs to retinal tissue, therapies for ocular vascular disease are often administered by intravitreal injection. Therefore, it was assessed whether […] causes retinal toxicity following intraocular administration. To this end, ERGs up to 5 weeks were examined following a single intraocular injection of increasing doses (70, 140, 210, and 350 ng) of 32-134D.
To assess whether a higher dose of 32-134D could facilitate less frequent administration, the safety of higher doses of intraocular administration of 32-134D was assessed. To this end, ERGs up to 2 weeks following a single intraocular injection of high doses (500 and 1,000 ng) of 32-134D were examined.
Intraocular injections: Intravitreal injections were performed with a PLI-100A Pico-liter Microinjector (Warner Instruments, Harvard Bioscience) using pulled-glass micropipettes. Each micropipette was calibrated to deliver a 1 μl volume on depression of a foot switch. The mice were anesthetized with a ketamine (100 mg/kg) and xylazine (5 mg/kg) mixture, and under a dissecting microscope, the sharpened tip of the micropipette was passed through the sclera just posterior to the limbus into the vitreous cavity and the foot switch was depressed, which caused fluid to penetrate into the vitreous space. Test compound was injected into the vitreous cavity in OIR and STZ mice for vascular permeability test, retinal vasculature and lysates for WB and qPCR analysis.
Flash scotopic ERGs: All procedures were performed under dim red light. Mice were dark adapted overnight, anesthetized with ketamine (50 mg/kg) and xylazine (5 mg/kg) and pupils were dilated with a topical drop of tropicamide (1%). Scotopic ERG responses were measured using the Celeris ERG stimulator (Diagnosys, Lowell, MA) at flash intensities of 0.025, 0.25, 2.5, 7.96, and 79.06 cd/s/m2. ERGs were measured simultaneously from both eyes with a ground electrode placed into the forehead between the eyes and a reference electrode into the hip.

## Brc1ccc2c(-c3csc(-c4c[nH]c5c(Br)cccc45)n3)c[nH]c2c1 [Compound 32-134D, 4-(6-bromo-1H-indol-3-yl)-2-(7-bromo-1H-indol-3-yl)thiazole]
HIF target genes
  hypoxia-induced expression of HIF target genes CA9, ANGPTL4, VEGFA, NDRG1 and EPO: inhibited
HIF-1α and HIF-2α
  accumulation of HIF-1α and HIF-2α protein: effectively prevented
[1]
  hypoxia-increased ANGPT2 and VEPTP mRNA expression: inhibited
  hypoxia-induced VEGF and ANGPTL4 mRNA expression: effectively inhibited
C57BL/6 mice; 35 days after intraocular injection of up to 350 ng
  retinal histology including GCL: normal histology
C57BL/6 mice; highest doses tested (210 or 350 ng), 35 days
  number of RGCs on retinal flat mounts: unaffected
C57BL/6 mice; single intraocular injection 70, 140, 210, 350 ng, up to 5 weeks
  ERG evidence of retina toxicity: no ERG evidence of retina toxicity
C57BL/6 mice; single intraocular injection 500 and 1,000 ng, up to 2 weeks
  ERG evidence of retina toxicity: no ERG evidence of retina toxicity
